From DBAASP
In brackets after ≈: the same amount, converted by molar mass.

Legend:
Assay in all cases: ≥ marks a high value that may be exact or a test limit, other limits are often not marked, values filed in µg/mL are converted to µM
[1] = tested on: Acinetobacter baumannii Ab5753
[2] = tested on: Acinetobacter baumannii Ab5755
[3] = tested on: Acinetobacter baumannii ICB 14067
[4] = tested on: Bacillus subtilis ATCC 63501
[5] = tested on: Enterobacter cloacae Ha089
[6] = tested on: Escherichia coli ATCC 25922 ΔsbmA
[7] = tested on: Escherichia coli ATCC 25922
Escherichia coli JJ2487 = tested on: Escherichia coli JJ2487
[8] = tested on: Klebsiella pneumoniae CMCC 46117
Klebsiella pneumoniae = tested on: Klebsiella pneumoniae
[9] = tested on: Pseudomonas aeruginosa ATCC 27853
[10] = tested on: Pseudomonas aeruginosa Pa4216
Pseudomonas aeruginosa = tested on: Pseudomonas aeruginosa
[11] = tested on: Salmonella typhimurium SL1344
[12] = tested on: Stenotrophomonas sp. ICB 7569
[13] = tested on: Stenotrophomonas sp. ICB 7789

CC[C@H](C)[C@H](NC(=O)[C@H](CCCN=C(N)N)NC(=O)[C@H](CCCN=C(N)N)NC(=O)[C@@H]1CCCN1C(=O)[C@@H]1CCCN1C(=O)[C@H](CCCN=C(N)N)NC(=O)[C@@H]1CCCN1C(=O)[C@H](CCCN=C(N)N)NC(=O)[C@@H]1CCCN1C(=O)[C@H](CC(C)C)NC(=O)[C@H](Cc1ccc(O)cc1)NC(=O)[C@@H]1CCCN1C(=O)[C@@H]1CCCN1C(=O)[C@H](CCCCN)NC(=O)[C@H](CC(=O)O)NC(=O)[C@@H](N)C(C)C)C(=O)N[C@@H](Cc1ccc(O)cc1)C(=O)N[C@@H](CC(N)=O)C(=O)N[C@@H](CCCN=C(N)N)C(N)=O [VDKPPYLPRPRPPRRIYNR]
MIC [1]: ≥ 53.5 µM
MIC [2]: ≥ 53.5 µM
MIC [3]: 0.418 µM (≈ 1 µg/mL)
MIC [4]: ≥ 512 µM
MIC [5]: 0.0523 µM (≈ 0.125 µg/mL)
MIC [6]: 16 µM (≈ 38.2 µg/mL)
MIC [7]: 8 µM (≈ 19.1 µg/mL)
MIC (Escherichia coli JJ2487): 0.251 µM (≈ 0.6 µg/mL)
MIC [8]: 2 µM (≈ 4.78 µg/mL)
MIC (Klebsiella pneumoniae): 3.35 µM (≈ 8 µg/mL)
MIC [9]: 1.67 µM (≈ 4 µg/mL)
MIC [10]: ≥ 53.5 µM
MIC (Pseudomonas aeruginosa): 1.18 µM (≈ 2.83 µg/mL)
MIC [11]: 0.251 µM (≈ 0.6 µg/mL)
MIC [12]: 3.35 µM (≈ 8 µg/mL)
MIC [13]: 13.4 µM (≈ 32 µg/mL)
